Values after ≈ are worked out from the molar mass of the structure shown.
Experiments:
S. aureus Oxford = assay: MIC by agar-dilution (Diagnostic Sensitivity Test), inoculum 10^4 CFU/spot; assay type: cell-based; conditions: Staphylococcus aureus, read-out: minimum inhibitory concentration (MIC)
Excerpt: (§1) The pharmaceutically acceptable carbapenem compounds of the present invention are useful antibacterial agents having a broad spectrum of activity in vitro against standard laboratory microorganisms, both Gram-negative and Gram-positive, which are used to screen for activity against pathogenic bacteria. The antibacterial spectrum and potency of a particular compound may be determined in a standard test system. In particular the carbapenems of the present invention show good stability to beta-lactamases and have a particularly good elimination half life in mammals. In general compounds show significant improvement over imipenem.
(§2) The following results were obtained for representative compounds on a standard in vitro test system using Diagnostic Sensitivity Test. The antibacterial activity is described in terms of the minimum inhibitory concentration (MIC) determined by the agar-dilution technique with an inoculum size of 10^4 CFU/spot.

[1] = test system: Enterobacter cloacae P99-; assay: as above; assay type: cell-based; conditions: P99, read-out: minimum inhibitory concentration (MIC)
Excerpt: as §1, §2

E. coli DCO = assay: as above; assay type: cell-based; conditions: Escherichia coli, read-out: minimum inhibitory concentration (MIC)
Excerpt: as §1, §2

B. fragilis AMP S = assay: as above; assay type: cell-based; conditions: Bacteroides fragilis, read-out: minimum inhibitory concentration (MIC)
Excerpt: as §1, §2

P. morganii I + 001 = assay: as above; assay type: cell-based; conditions: Morganella morganii, read-out: minimum inhibitory concentration (MIC)
Excerpt: as §1, §2

[2] = test system: Gram positive and negative, aerobic and anaerobic bacteria; conditions: imipenem, background; cited from earlier work

SMILES	MIC (S. aureus Oxford)	MIC [1]	MIC (E. coli DCO)	MIC (B. fragilis AMP S)	MIC (P. morganii I + 001)	spectrum of antibacterial activity [2]
C[C@@H](O)[C@H]1C(=O)N2C(C(=O)O)=C(S[C@@H]3CN[C@H](C(=O)Nc4cccc(S(=O)(=O)O)c4)C3)[C@H](C)[C@H]12 [EXAMPLE 1, (1R,5S,6S,8R,2'S,4'S)-2-(2-(3-Sulfophenylcarbamoyl)pyrrolidin-4-ylthio)-6-(1-hydroxyethyl)-1-methylcarbapenem-3-carboxylic acid]	0.125 µg/mL (≈ 0.244 µM)	0.008 µg/mL (≈ 0.0156 µM)	0.015 µg/mL (≈ 0.0293 µM)	0.25 µg/mL (≈ 0.489 µM)	0.015 µg/mL (≈ 0.0293 µM)	
C[C@@H](O)[C@H]1C(=O)N2C(C(=O)O)=C(SCCN=CN)C[C@H]12 [imipenem, N-formimidoyl thienamycin]						broad spectrum of antibacterial activity

Reference: US5571805A, “Antibiotic compounds” (Zeneca Limited, priority 1992, dated 1996)
